Data taken from patent US12697289B2, “Organic ricinoleate salts as deodorizing agents” (COLONIAL CHEMICAL, INC., priority 2022, dated 2026).

Experiment: Deodorization evaluation with GASTEC gas detector tubes (24 hour acetic acid deodorization study)
Conditions: FIG. 1; GASTEC Detector Tube method; 24 hour equilibration; comparison with industry standard Cola®Quat SME
From the text: Deodorization Evaluations with GASTEC Gas Detector Tubes.
The Gas Sampling Pump Kit (GV-100S) and Gas detection tubes are manufactured by GasTec International and purchased through New Star Environmental. The pump provided in the gas sampling pump kit provides a precise vacuum on the tubes and therefore a specific volume of gas. Tubes are pre-calibrated for specific molecules, have a ppm scale on the tube, and show a color change when reacting to the target odor causing molecule. There may be corrections for temperature, humidity, or specific target molecules.
Our exemplary, general method was as follows: • 1. […] Prepare the odorant solution for the experiment. • The concentration will need to be workshopped for each odorant molecule to give an appropriate “untreated” ppm reading • 5. […]
Additionally, the method attempts to control the volume of odorant solution, volume of deodorant solution, total liquid volume, surface area of liquid, volume of headspace, and equilibration time. Ambient temperature and humidity are recorded at the start of equilibration and at the time of measurement. […] The temperature used if correction is necessary is the temperature recorded at measurement. The humidity used if correction is necessary is the humidity recorded before equilibration as this should be the main component of the humidity variations between experiments. […]

Row | Substance | reducing odor vapors from acetic acid, compared to Cola®Quat SME standard
1 | Soyamidopropyl Morpholine Ricinoleate | compare favorably
2 | soyamidopropyl dimethylamine ricinoleate | compare favorably
